Data taken from patent US6733982B1, “Method for screening compounds for alpha1B adrenergic receptor antagonist and analgesic activity” (Syntex (U.S.A.) LLC, priority 1999, dated 2004).

Legend:
[1] = system: neuropathic rats (chronic constriction injury); test: Cold allodynia response (cold bath assay) in neuropathic (chronic constriction injury) rats; type: in vivo, rat
Description: This experiment was conducted to evaluate the effects of 4-(2-benzofuran-7-yl-5-oxo-oxazol-4-ylidenemethyl)-N-phenyl-piperazine-1-carboxamidine hydrochloride, and similar or related compounds, on the cold allodynia response in neuropathic rats. The test apparatus and methods of behavioral testing is described in Gogas et al. (1997) Analgesia 3:111-118.
Male Sprague-Dawley rats (Harlan), 160-200 g, were surgically prepared to have a chronic constriction injury (CCl) as described above 6 days prior to testing. Rats were selected for the study according to the following criteria: 1) the average of two trials was less than or equal to 13 sec; and 2) there was consistency across the two trial scores. Animals were screened for hypersensitivy to cold on post-surgery days 4 through 10, and selected for inclusion in dose-response studies based on the criteria described above. The pre-dose screening values were used as the animals' baseline cold allodynia scores.
Selected rats were tested twice in the cold bath assay described above for a pre-dose baseline and randomly assigned to treatment groups and dosed at 0 (vehicle, 10 ml/kg, 0.5% CMC, 30, 100 or 300 μg/kg, i.p. After 1 hour and 3 hours post-dosing, rats were tested in the cold bath assay. For each rat, the assay was run once at 1 and 3 hours post-dose. The time to raise the rear leg was recorded in each trial. The maximal observing time in each trial was 20 seconds.
(§1) Male Sprague-Dawley rats (Harlan), 160-270 g, were surgically prepared to have a chronic constriction injury (CCl) as described above 5 days prior to testing. Rats were selected and tested as described in Example 3. Selected rats were dosed at 0 (vehicle, 10 mL/kg, deionized water), 30 or 300 μg/kg, i.p. After 20 min and 40 minutes post-dosing, rats were tested in the cold bath assay.
as §1, with “170-270” for “160-270”, “14” for “5”
(§2) Heat and cold allodynia responses can be evaluated as described below in rats having a chronic constriction injury (CCl). A unilateral mononeuropathy is produced in rats using the chronic constriction injury model described in Bennett et al. (1988) Pain 33:87-107.
(§3) CCl is produced in anesthetized rats as follows. The lateral aspect of each rat's hind limb is shaved and scrubbed with Nolvasan. Using aseptic techniques, an incision is made on the lateral aspect of the hind limb at the mid-thigh level. The biceps femoris is bluntly dissected to expose the sciatic nerve. On the right hind limb of each rat, four loosely tied ligatures (for example, Chromic gut 4.0; Ethicon, Johnson and Johnson, Somerville, N.J.) are made around the sciatic nerve approximately 1-2 mm apart. On the left side of each rat, an identical dissection is performed except that the sciatic nerve is not ligated (sham). The muscle is closed with a continuous suture pattern with, e.g., 4-0 Vicryl (Johnson and Johnson, Somerville, N.J.) and the overlying skin is closed with wound clips. The rats are ear-tagged for identification purposes and returned to animal housing.

[2] = biological target: T1, alpha1B adrenergic receptor (Homo sapiens, UniProt P35368); test: [3H]prazosin radioligand binding on membranes of alpha1 adrenergic receptor transfected CHO-K1 cells; details: methods of Example 1: alpha1A, alpha1B and alpha1D transfected CHO-K1 cells
T1 construct: expressed in transfected cells; host or cells: CHO-K1
T1 sequence (P35368 1-520): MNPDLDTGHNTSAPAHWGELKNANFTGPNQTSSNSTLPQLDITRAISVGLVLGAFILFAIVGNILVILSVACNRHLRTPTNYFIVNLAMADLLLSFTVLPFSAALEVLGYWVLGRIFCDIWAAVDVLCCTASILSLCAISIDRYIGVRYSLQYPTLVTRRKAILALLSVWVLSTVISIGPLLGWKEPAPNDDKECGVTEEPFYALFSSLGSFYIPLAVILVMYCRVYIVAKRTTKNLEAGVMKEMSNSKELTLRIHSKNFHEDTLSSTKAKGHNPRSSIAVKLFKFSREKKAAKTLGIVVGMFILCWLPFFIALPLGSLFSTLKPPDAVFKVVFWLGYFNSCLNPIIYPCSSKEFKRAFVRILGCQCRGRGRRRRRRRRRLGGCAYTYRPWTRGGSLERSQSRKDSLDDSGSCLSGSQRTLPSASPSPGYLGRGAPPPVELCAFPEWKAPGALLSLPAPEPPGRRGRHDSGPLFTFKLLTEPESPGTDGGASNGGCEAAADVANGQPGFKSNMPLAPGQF
Description: Alpha1A, alpha1B and Alpha1D adrenergic receptor transfected CHO-K1 cells, prepared using the methods described in Chang et al. (1998) FEBS Lett. 422:279-283, were grown to confluence in T-162 tissue culture flasks in Ham's F-12 culture medium supplemented with 10% fetal bovine serum, geneticin (150 μg/ml) and streptomycin: penicillin (30 μg/ml:30 μg/ml) at 37° C. in 7% CO2. Cells were harvested by incubating with phosphate-buffered saline (PBS) containing 30 μM EDTA for 5-10 min at 37° C. Cells were pelleted by centrifuging at 500×g for 5 min, the pelleted cells were homogenized (Polytron homogenizer) in 10 vols (w/v) of 50 mM Tris, 1 mM EDTA, (homogenisation buffer, pH 7.4 at 4° C.). The homogenate was centrifuged at 45,000×g for 20 min. […]
The membranes were thawed at room temperature and diluted in assay buffer (50 mM Tris, pH 7.4) at 37° C. and homogenized using the Polytron tissue disrupter. […] Scintillation cocktail was added to the filter plates and bound radioligand determined by liquid scintillation spectrophotometry.
For each experiment, total binding (in the absence of any test or reference compounds) and non specific binding (10 μM phentolamine) were determined. […] If the radioligand KD was known, the inhibition dissociation constant (Ki) of each ligand was determined according to the method of Cheng et al. (1973) Biochem. Pharmacol. 22:3099-3108).

[3] = system: neuropathic rats (chronic constriction injury); test: Pain response to radiant heat in neuropathic (chronic constriction injury) rats; type: in vivo, rat; details: CCI rats
Description: Male Sprague-Dawley rats (Harlan), 240-300 g, were surgically prepared to have a chronic constriction injury (CCl) as described above 13-15 days prior to testing. Rats were selected for the study according to the following criteria: ligated leg (LL)latency−4 to 14 seconds; sham leg (LS) latency−6 to 18 seconds; difference (LDiff=LL−LS)−greater than 1.5 seconds. Selected rats were randomly assigned to treatment groups and dosed at 0 (vehicle, 10 ml/kg, 0.5% CMC, 30, 60, 100 or 300 μg/kg, i.p. After 45 minutes post-dosing, rats were placed under inverted plastic cages on an elevated glass platform. Following 15 minutes of acclimatization, a radiant heat source, e.g., light was placed below the glass and illuminated in order for the glass to reach a temperature of 80-82° F. For each rat, four trials of each of the following were performed: shone light on the left hind paw (sham) and recorded the latency when the paw was withdrawn; shone light on the right hind paw (ligated) and recorded the latency when the paw was withdrawn. Five minute intervals were allowed between trials. Hind paws were examined for redness and blistering after each test.
Male Sprague-Dawley rats (Harlan), 240-300 g, were surgically prepared to have a CCl as described above 19-21 days prior to testing. Rats were selected for the study according to the following described in Example 2. Selected rats were randomly assigned to treatment groups and dosed with 4-(2-naphthalen-1-yl-5-oxo-oxazol-4-ylidenemethyl)-N-phenyl-piperazine-1-carboxamidine at 0 (vehicle, 10 mL/kg deionized water, 30, 60, 100, 300 or 1000 μg/kg, i.p. After 1 hour post-dosing, rats were tested as described in Example 2.
as §2, §3

[4] = 300 μg/kg i.p., 40 min post-dose
[5] = 60 μg/kg i.p., about 1 hour post-dosing
[6] = 100 μg/kg i.p., about 1 hour post-dosing
[7] = 300 μg/kg i.p., about 1 hour post-dosing
[8] = 100 μg/kg i.p., 1 hour post-dose, p<0.01
[9] = 300 μg/kg i.p., 1 hour post-dose, p<0.01
[10] = 300 μg/kg i.p., 3 hours post-dose, p<0.05

## Cc1c[nH]c(=O)n(CCCN2CCN(c3ccccc3OCC(F)(F)F)CC2)c1=O [3-(3-{4-[2-(2,2,2-trifluoroethoxy)phenyl]-piperazin-1-yl}propyl)-5-methyl-2,4(1H,3H)-pyrimidinedione, reference compound]
[1]; [4]
  cold allodynia: change in latency from pre-dose compared to vehicle group: significant changes
  cold allodynia: latency times compared to vehicle control: significant increase in latency times

## Cl.N=C(Nc1ccccc1)N1CCN(C=C2N=C(c3cccc4ccoc34)OC2=O)CC1 [4-(2-benzofuran-7-yl-5-oxo-oxazol-4-ylidenemethyl)-N-phenyl-piperazine-1-carboxamidine hydrochloride]
[2]
  identification as selective alpha1B adrenergic receptor antagonist: identified as selective alpha1B adrenergic receptor antagonists
[3]; [5]
  effect in the radiant heat assay (paw withdrawal latency): significant effect
[3]; [6]
  effect in the radiant heat assay (paw withdrawal latency): significant effect
[3]; [7]
  effect in the radiant heat assay (paw withdrawal latency): significant effect
[1]; [8]
  cold allodynia: actual latency times compared to vehicle: significantly higher than vehicle
  cold allodynia: changes from pre-dose compared to vehicle: significantly higher than vehicle
[1]; [9]
  cold allodynia: actual latency times compared to vehicle: significantly higher than vehicle
  cold allodynia: changes from pre-dose compared to vehicle: significantly higher than vehicle
[1]; [10]
  cold allodynia: actual latency times compared to vehicle: significantly higher than vehicle
  cold allodynia: changes from pre-dose compared to vehicle: significantly higher than vehicle

## N=C(Nc1ccccc1)N1CCN(C=C2N=C(c3cccc4ccccc34)OC2=O)CC1 [4-(2-naphthalen-1-yl-5-oxo-oxazol-4-ylidenemethyl)-N-phenyl-piperazine-1-carboxamidine]
[2]
  identification as selective alpha1B adrenergic receptor antagonist: identified as a selective alpha1B adrenergic receptor antagonist
[3]; [5]
  effect in the radiant heat assay (paw withdrawal latency): significant effect
[3]; [6]
  effect in the radiant heat assay (paw withdrawal latency): significant effect
[3]; [7]
  effect in the radiant heat assay (paw withdrawal latency): significant effect
[3]; 1000 μg/kg i.p., 1 hour post-dosing
  effect in the radiant heat assay (paw withdrawal latency): significant effect
[1]; 30 μg/kg i.p., 20 min post-dose
  cold allodynia: change in latency from pre-dose compared to vehicle group: significant increase in latency from pre-dose
[1]; 300 μg/kg i.p., 20 min post-dose
  cold allodynia: change in latency from pre-dose compared to vehicle group: significant increase in latency from pre-dose
[1]; [4]
  cold allodynia: change in latency from pre-dose compared to vehicle group: significant change from pre-dose
  cold allodynia: latency times compared to pre-dose: significant increase in latency
[1]; 20 min post-dose, i.p. (doses tested 30 or 300 μg/kg; dose not given)
  cold allodynia: latency times compared to pre-dose: significant change in latency times
